Data from patent publication US6534041B1, “Acid-labile and enzymatically divisible dye compounds for diagnosis with near infrared light and for therapy” (Institute for Diagnostic Research GmbH of the Free …, priority 1997, dated 2003).

What was measured:
VIS/NIR absorption = type: physicochemical; details: H2O
[1] = in DMSO; according to Benson and Kues 1977; cited from earlier work

## CC(=O)c1ccc2c(c1)C(C)(C)C(C=CC=CC=CC=C1N(CCCCS(=O)(=O)[O-])c3ccccc3C1(C)C)=[N+]2CCCCS(=O)(=O)[O-].[Na+] [compound 1, 5-(1-oxoethyl)-1,1′-(4-sulfobutyl)-indotricarbocyanine-sodium salt]
VIS/NIR absorption
  Absorption λmax: 748 nm
VIS/NIR absorption; 748 nm
  Absorption coefficient ξ at λmax: 14,800 1 mol^−1 cm^−1

## CC1(C)C(/C=C/C=C/C=C/C=C2\N(CCCCS(=O)(=O)O)c3ccc4ccccc4c3C2(C)C)=[N+](CCCCS(=O)(=O)[O-])c2ccc3ccccc3c21 [indocyanine green]
[1]
  Fluorescence quantum yield Q (standard): 13%
